ChEMBL document CHEMBL1201862, “PubChem BioAssay data set” (2004)
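Cells were grown in 96-well plates and exposed to each compound for 48 hours at five concentrations; endpoints were interpolated linearly between bracketing concentrations, or set to the highest concentration if not reached. At the GI50, growth is halved.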 Activity calls are given as the source filed them. Rule as the data show it: active = GI50 up to about 1.1 µM and inactive = higher.

What was measured:
Assay in all cases: NCI-60 cell line screen, 48 h
[1] = system: A549
[2] = system: ACHN
[3] = system: DU-145
[4] = system: HCT-116
[5] = system: HL-60
[6] = system: HT-29
[7] = system: Hs-578T
[8] = system: LOX IMVI
[9] = system: MDA-MB-435
[10] = system: MOLT-4
[11] = system: NCI-H226
[12] = system: NCI-H23
[13] = system: OVCAR-5
[14] = system: PC-3
[15] = system: RXF 393
[16] = system: SF-268
[17] = system: T47D
[18] = system: UACC-257
[19] = system: UO-31
[20] = system: Malme-3M

Row | Compound | GI50 [1] | GI50 [2] | GI50 [3] | GI50 [4] | GI50 [5] | GI50 [6] | GI50 [7] | GI50 [8] | GI50 [9] | GI50 [10] | GI50 [11] | GI50 [12] | GI50 [13] | GI50 [14] | GI50 [15] | GI50 [16] | GI50 [17] | GI50 [18] | GI50 [19] | GI50 [20]
1 | COC(=O)[C@]1(CCC(C)=O)C(=O)C=CN([C@H](C)c2ccccc2)[C@@H]1Cc1ccc(OC)c(OCc2ccccc2)c1I | 20.4 µM (inactive) | 25.7 µM (inactive) | 16.7 µM (inactive) | 14 µM (inactive) | 24 µM (inactive) | 14.6 µM (inactive) | 24 µM (inactive) | 17.2 µM (inactive) | 18.1 µM (inactive) | 12.4 µM (inactive) | 15.7 µM (inactive) | 23.7 µM (inactive) | 22.7 µM (inactive) | 16.6 µM (inactive) | 11.4 µM (inactive) | 15.4 µM (inactive) | 13.5 µM (inactive) | 16.7 µM (inactive) | 15.2 µM (inactive) | –
2 | OCC1CCCCN1Cc1nc2cc(Cl)ccc2[nH]1 (stereo not given) | > 100 µM (inactive) | > 100 µM (inactive) | > 100 µM (inactive) | > 100 µM (inactive) | > 100 µM (inactive) | 56.1 µM (inactive) | > 100 µM (inactive) | – | > 100 µM (inactive) | > 100 µM (inactive) | 95.5 µM (inactive) | > 100 µM (inactive) | > 100 µM (inactive) | 55.2 µM (inactive) | 65 µM (inactive) | > 100 µM (inactive) | > 100 µM (inactive) | > 100 µM (inactive) | > 100 µM (inactive) | > 100 µM (inactive)
3 | COc1cc(/C=N/NC(=O)c2ccc(NC(C)=O)cc2OC)ccc1O | > 100 µM (inactive) | 38.9 µM (inactive) | 69.5 µM (inactive) | 61.8 µM (inactive) | > 100 µM (inactive) | > 100 µM (inactive) | 32.4 µM (inactive) | 47.4 µM (inactive) | > 100 µM (inactive) | > 100 µM (inactive) | < 0.01 µM (active) | 54.6 µM (inactive) | > 100 µM (inactive) | 43.5 µM (inactive) | 39.3 µM (inactive) | 34.2 µM (inactive) | 84.5 µM (inactive) | – | > 100 µM (inactive) | > 100 µM (inactive)
4 | CC(=O)Oc1c(OC(C)C)c(C)c(O[Si](C(C)C)(C(C)C)C(C)C)c2[nH]c3ccccc3c12 | > 82.2 µM (inactive) | > 100 µM (inactive) | > 100 µM (inactive) | 63.4 µM (inactive) | 2.62 µM (inactive) | 38.5 µM (inactive) | > 100 µM (inactive) | > 100 µM (inactive) | > 42.2 µM (inactive) | 12 µM (inactive) | > 100 µM (inactive) | 33.6 µM (inactive) | > 100 µM (inactive) | 37.7 µM (inactive) | 20.2 µM (inactive) | > 100 µM (inactive) | 44.4 µM (inactive) | > 62.4 µM (inactive) | > 100 µM (inactive) | –
5 | O=S1(=O)c2ccccc2C(=NO)c2ccccc21 | > 100 µM (inactive) | > 100 µM (inactive) | > 100 µM (inactive) | > 100 µM (inactive) | 14.8 µM (inactive) | > 100 µM (inactive) | 63.8 µM (inactive) | 80.2 µM (inactive) | > 100 µM (inactive) | 30.3 µM (inactive) | > 100 µM (inactive) | > 100 µM (inactive) | > 100 µM (inactive) | 43.4 µM (inactive) | 24.8 µM (inactive) | > 100 µM (inactive) | 80 µM (inactive) | > 100 µM (inactive) | 28.2 µM (inactive) | –
6 | CCOC(=O)c1cc(C2(O)CCN(CC(C)CC)C2=O)c(-c2cc(C)no2)[nH]1 (stereo not given) | > 100 µM (inactive) | – | > 100 µM (inactive) | > 100 µM (inactive) | > 100 µM (inactive) | > 100 µM (inactive) | > 100 µM (inactive) | > 100 µM (inactive) | > 100 µM (inactive) | > 100 µM (inactive) | > 100 µM (inactive) | > 100 µM (inactive) | > 100 µM (inactive) | > 100 µM (inactive) | > 100 µM (inactive) | > 100 µM (inactive) | > 100 µM (inactive) | > 100 µM (inactive) | > 100 µM (inactive) | > 100 µM (inactive)
7 | Cc1nc(Nc2ccccc2Cl)sc1C(=O)CC(=O)C(N)=O | 41.8 µM (inactive) | 32.7 µM (inactive) | > 100 µM (inactive) | 10.9 µM (inactive) | 11.8 µM (inactive) | 18.8 µM (inactive) | 59.2 µM (inactive) | 27.4 µM (inactive) | 16 µM (inactive) | 26.4 µM (inactive) | 22.7 µM (inactive) | 28.2 µM (inactive) | > 100 µM (inactive) | 19.7 µM (inactive) | 48.8 µM (inactive) | > 100 µM (inactive) | > 100 µM (inactive) | > 100 µM (inactive) | 21.7 µM (inactive) | –
8 | O=[N+]([O-])c1ccc(C2ON=C(c3ccccc3)N2C23CC4CC(CC(C4)C2)C3)cc1 (stereo not given) | > 10 µM (inactive) | > 10 µM (inactive) | > 10 µM (inactive) | > 10 µM (inactive) | > 10 µM (inactive) | > 10 µM (inactive) | 6.75 µM (inactive) | > 10 µM (inactive) | > 10 µM (inactive) | > 10 µM (inactive) | > 10 µM (inactive) | > 10 µM (inactive) | > 10 µM (inactive) | > 10 µM (inactive) | > 10 µM (inactive) | > 10 µM (inactive) | > 10 µM (inactive) | > 10 µM (inactive) | – | > 10 µM (inactive)
9 | O=C1CCc2cc([N+](=O)[O-])ccc2O1 | > 100 µM (inactive) | > 100 µM (inactive) | > 100 µM (inactive) | > 100 µM (inactive) | > 100 µM (inactive) | > 100 µM (inactive) | > 100 µM (inactive) | > 100 µM (inactive) | > 100 µM (inactive) | > 100 µM (inactive) | > 100 µM (inactive) | > 100 µM (inactive) | > 100 µM (inactive) | > 100 µM (inactive) | > 100 µM (inactive) | > 100 µM (inactive) | > 100 µM (inactive) | > 100 µM (inactive) | – | > 100 µM (inactive)
10 | C#C[C@]1(O)CC[C@H]2[C@@H]3CCc4cc(OC(=O)c5cccc6cc7ccccc7nc56)ccc4[C@H]3CC[C@@]21C | 34 µM (inactive) | 49 µM (inactive) | 23.5 µM (inactive) | 24.3 µM (inactive) | 8.75 µM (inactive) | 33.9 µM (inactive) | 25.6 µM (inactive) | 20.5 µM (inactive) | 31.2 µM (inactive) | 6.98 µM (inactive) | 33.2 µM (inactive) | 40.3 µM (inactive) | 43.8 µM (inactive) | 35.9 µM (inactive) | 44.4 µM (inactive) | 67.5 µM (inactive) | 13.9 µM (inactive) | 63.4 µM (inactive) | – | 6.44 µM (inactive)
11 | COc1ccc(-n2c(N)c(C#N)c(C#N)c2-c2cccc([N+](=O)[O-])c2)cc1 | 1.53 µM (inactive) | 91 µM (inactive) | 43.3 µM (inactive) | – | > 100 µM (inactive) | 25.3 µM (inactive) | 15.3 µM (inactive) | 48.3 µM (inactive) | > 100 µM (inactive) | 2.46 µM (inactive) | > 100 µM (inactive) | > 100 µM (inactive) | > 100 µM (inactive) | 33.5 µM (inactive) | 2.55 µM (inactive) | 51.9 µM (inactive) | 35.2 µM (inactive) | > 100 µM (inactive) | 15 µM (inactive) | > 100 µM (inactive)
12 | Cc1ccc2cc3c(ccc4ccccc43)c3c2c1CC3 [3-METHYLCHOLANTHRENE] | > 100 µM (inactive) | > 100 µM (inactive) | > 100 µM (inactive) | > 100 µM (inactive) | > 100 µM (inactive) | > 100 µM (inactive) | 83.9 µM (inactive) | > 100 µM (inactive) | > 100 µM (inactive) | > 100 µM (inactive) | > 100 µM (inactive) | > 100 µM (inactive) | – | > 100 µM (inactive) | > 100 µM (inactive) | > 100 µM (inactive) | > 100 µM (inactive) | > 100 µM (inactive) | > 100 µM (inactive) | –
13 | CC(C)=CCN1c2ccccc2NC(=O)CC1C (stereo not given) | > 100 µM (inactive) | 71.1 µM (inactive) | > 100 µM (inactive) | – | 61.2 µM (inactive) | > 100 µM (inactive) | > 100 µM (inactive) | > 100 µM (inactive) | > 100 µM (inactive) | > 100 µM (inactive) | > 100 µM (inactive) | > 100 µM (inactive) | > 100 µM (inactive) | > 100 µM (inactive) | > 100 µM (inactive) | > 100 µM (inactive) | 84.7 µM (inactive) | 28.8 µM (inactive) | 83.4 µM (inactive) | > 100 µM (inactive)
14 | CC(C)(C)OC(=O)n1cc(C2CN(O)C(=O)C23CCC(=O)N3Cc2ccccc2)c2ccccc21 (stereo not given) | 35.3 µM (inactive) | – | 60.1 µM (inactive) | 66.2 µM (inactive) | 54.2 µM (inactive) | 39.9 µM (inactive) | 42.3 µM (inactive) | 21.2 µM (inactive) | 28.6 µM (inactive) | > 100 µM (inactive) | 24.5 µM (inactive) | 61.1 µM (inactive) | 46.9 µM (inactive) | 28 µM (inactive) | 68.4 µM (inactive) | 86.3 µM (inactive) | 50.6 µM (inactive) | 64.1 µM (inactive) | 40.7 µM (inactive) | > 100 µM (inactive)
